US4112228A, “7-(D-α-Hydroxy-2-arylacetamido)-3-(2-carboxyalkyl-2,3-dihydro-s-tri azolo-[4,3-b]pyridazin-3-on-6-ylthiomethyl)-3-cephem-4-carboxylic acids and derivatives” (priority 1977, dated 1978)
Read-outs that look alike come from different tables or passages of the source.

What was measured:
Assay in all cases: MIC by Steers' agar dilution method
Kl. pneumoniae = format: cell-based; conditions: Klebsiella pneumoniae
Pr. vulgaris = conditions: Proteus vulgaris
E. coli = format: cell-based; conditions: Escherichia coli

Measured: MIC

O=C(O)Cn1nc2ccc(SCC3=C(C(=O)O)N4C(=O)C(NC(=O)[C@H](O)c5ccccc5)[C@H]4SC3)nn2c1=O (stereo partly drawn) [BB-S488, 7-(D-Mandelamido)-3-(2-carboxymethyl-2,3-dihydro-s-triazolo[4,3-b]pyridazin-3-on-6-ylthiomethyl)-3-cephem-4-carboxylic Acid]
6.3 µg/mL: Kl. pneumoniae; Kp-10 A20328, MHA, Table 3 | Kl. pneumoniae; Kp-12 A21228, MHA, Table 3 | Pr. vulgaris; Pv-2 A9526, MHA, Table 3 | Pr. vulgaris; Pv-3 A9699, MHA, Table 3 | E. coli; ATCC8739, ATCC 8739, MHA, Example 10 | E. coli; Ec-36 A15147 (β-lactamase), HIA, Table 4, read-out: MIC | E. coli; Ec-36 A15147 (β-lactamase), MHA, Table 4, read-out: MIC
0.8 µg/mL: Kl. pneumoniae; Kp-4 A15130, HIA, Table 4 | Kl. pneumoniae; Kp-4 A15130, NA, Table 4 | Pr. vulgaris; Pv-3 A9699 (β-lactamase), MHA, Table 4 | Pr. vulgaris; Pv-3 A9699 (β-lactamase), NA, Table 4 | Pr. vulgaris; strain not named (2nd of 2), MHA, Example 10
> 100 µg/mL: E. coli; Ec-11 A20366 (β-lactamase), HIA, Table 4, read-out: MIC | E. coli; Ec-11 A20366 (β-lactamase), MHA, Table 4, read-out: MIC | E. coli; Ec-11 A20366 (β-lactamase), NA, Table 4, read-out: MIC
0.05 µg/mL: Kl. pneumoniae; A9977, MHA, Table 1 | E. coli; A9660, MHA, Table 1, read-out: MIC | E. coli; Ec-1 NIHJ, HIA, Table 4, read-out: MIC | E. coli; Ec-1 NIHJ, MHA, Table 4, read-out: MIC
100 µg/mL: Pr. vulgaris; Pv-3 A9699 (β-lactamase), HIA, Table 4
50 µg/mL: E. coli; Ec-11 A20366, MHA, Table 3, read-out: MIC
0.1 µg/mL: Kl. pneumoniae; Kp-1 D11, MHA, Table 3 | Kl. pneumoniae; Kp-3 A9977, MHA, Table 3 | Kl. pneumoniae; strain not named (2nd of 4), MHA, Example 10 | Pr. vulgaris; A9436, MHA, Table 1 | Pr. vulgaris; ATCC9920, Pv-4 ATCC 9920, MHA, Table 3 | Pr. vulgaris; Pv-1 A9436, MHA, Table 4 | Pr. vulgaris; Pv-6 A9716, MHA, Table 3 | Pr. vulgaris; strain not given (1st of 2), MHA, Example 10 | E. coli; A15810, MHA, Table 1, read-out: MIC | E. coli; ATCC8739, ATCC 8739, MHA, Table 1, read-out: MIC | E. coli; ATCC8739, Ec-15 ATCC 8739, NA, Table 4, read-out: MIC | E. coli; Ec-1 NIHJ, NA, Table 4, read-out: MIC | E. coli; Ec-34 A9660, MHA, Table 3, read-out: MIC
12.5 µg/mL: Kl. pneumoniae; Kp-9 A20636, MHA, Table 3 | E. coli; Ec-4 A15169, MHA, Table 3, read-out: MIC
0.2 µg/mL: Kl. pneumoniae; A9867, MHA, Table 1 | Kl. pneumoniae; A15130, MHA, Table 1 | Kl. pneumoniae; Kp-3 A9977, HIA, Table 4 | Kl. pneumoniae; Kp-3 A9977, MHA, Table 4 | Kl. pneumoniae; Kp-4 A15130, MHA, Table 3 | Kl. pneumoniae; strain not named (4th of 4), MHA, Example 10 | Pr. vulgaris; A9699, MHA, Table 1 | Pr. vulgaris; Pv-1 A9436, HIA, Table 4 | Pr. vulgaris; Pv-1 A9436, MHA, Table 3 | Pr. vulgaris; Pv-1 A9436, NA, Table 4 | E. coli; ATCC8739, Ec-15 ATCC 8739, HIA, Table 4, read-out: MIC | E. coli; ATCC8739, Ec-15 ATCC 8739, MHA, Table 3, read-out: MIC | E. coli; ATCC8739, Ec-15 ATCC 8739, MHA, Table 4, read-out: MIC | E. coli; BX-1373, MHA, Table 1, read-out: MIC | E. coli; Ec-1 NIHJ, MHA, Table 3, read-out: MIC | E. coli; Ec-3 Juhl A15119, MHA, Table 3, read-out: MIC | E. coli; Ec-3 Juhl A15119, MHA, Table 4, read-out: MIC | E. coli; Ec-3 Juhl A15119, NA, Table 4, read-out: MIC | E. coli; Ec-5 K-12, ML-1630 A20363, MHA, Table 3, read-out: MIC
0.4 µg/mL: Kl. pneumoniae; Kp-3 A9977, NA, Table 4 | Kl. pneumoniae; Kp-4 A15130, MHA, Table 4 | Kl. pneumoniae; Kp-7 A9867, MHA, Table 3 | Kl. pneumoniae; strain not named (3rd of 4), MHA, Example 10 | E. coli; Ec-3 Juhl A15119, HIA, Table 4, read-out: MIC | E. coli; Ec-35 A9435, MHA, Table 3, read-out: MIC
25 µg/mL: Kl. pneumoniae; Kp-8 A20680, MHA, Table 3 | Pr. vulgaris; Pv-5 A9539, MHA, Table 3 | Pr. vulgaris; Pv-7 A21240, MHA, Table 3
1.6 µg/mL: Kl. pneumoniae; Kp-11 A20330, MHA, Table 3
3.1 µg/mL: Kl. pneumoniae; A9678, MHA, Table 1 | Kl. pneumoniae; Kp-2 A9678, MHA, Table 3 | Kl. pneumoniae; strain not named (1st of 4), MHA, Example 10 | E. coli; A15147, MHA, Table 1, read-out: MIC | E. coli; BX-1373, MHA, Example 10, read-out: MIC
